Legend:
Format in all cases: physicochemical
[1] = Quantum yield determination (quinine sulphate standard); settings: for quantum yield Φ: with reference to quinine sulphate, 4 micromolar oxine derivative, 50 mM MgCl2, 20 mM HEPES (pH 7.4)
Experimental: (§1) This example describes the synthesis and screening of Oxn derivatives. A selection of substituted hydroxyquinoline derivatives related to a sulfonamide derivative (FIG. 1, complex 1), but bearing different acceptor groups at position 5 (FIG. 1, complexes 2-7) was prepared using previously described methods. These analogs were screened for fluorescence in the presence of excess Mg^2+ and under buffered aqueous conditions. FIG. 1 lists fluorescence data for compounds 1-7. Spectra were acquired in 150 mM NaCl, 50 mM HEPES (pH 7.4), 25° C. with 10 μM 1-7 and 10 mM MgCl2. Excitation of all species is provided at λmax […].
(§2) The fluorophores were then qualitatively compared in a 96-well plate (transilluminator; λex=365 nm) to identify promising compounds (FIG. 3) and were further subjected to quantitative analysis in a fluorescence plate reader (FIG. 8). In FIG. 8, the quantum yields of selected fluorophores were calculated with reference to quinine sulphate (in […] H2SO4) as a standard (vide infra). Compound 10u has ε355=7905 cm^−1M^−1 (vide infra). The excitation and emission wavelengths of the triazole products (10b-v, λex=360-375 nm, λem=510-530 nm) were improved compared to those for Sox (1, λex=360 nm, λem=485 nm, Φ=0.342, ε355=8,247 cm^−1M^−1). Based on the preliminary screening, selected targets were then synthesized in larger quantities and the quantum yields of the corresponding hydroxyquinoline derivatives were determined. Compared to 10a (Φ=0.033) a 3.5-fold improvement in quantum yield was obtained in the case of the bromide 10u (λex=375 nm, λem=525 nm, Φ=0.111, ε355=7,905 cm^−1M^−1). In view of the fluorescent properties of this derivative, it was chosen for use as a chelation-sensitive fluorophore to prepare probes for mitogen-activated protein kinase-activated protein kinase-2 (MK2), and sarcoma kinase (Src), used as models of Ser/Thr and Tyr kinases, respectively. For the purposes of comparison, the analogous fluorescent peptides containing the original Sox chromophore were also prepared as previously described.
c. Quantum yield determination. The quantum yield (Φ) was determined in 20 mM HEPES (pH 7.4). Quinine sulphate dihydrate (QS, Fluka, puriss. for fluorescence) in 0.1 M H2SO4 was used as a standard (Φ=0.55). A 4 micromolar solution of the corresponding oxine derivative with 50 mM MgCl2 was compared to a 4 micromolar solution of quinine sulfate to assure that the absorbance (A360) is less than 0.05 at identical excitation wavelengths. The following equation was used to calculate the quantum yield: Φ=IAQSΦQS/AIQS where A=A360 and I=integrated fluorescence intensity (λex=360 nm). The calculated Φ assumes that the refractive index of 0.1 M H2SO4 is identical to that of 20 mM HEPES (pH 7.4). […]

[2] = Observation of oxidation of the chromophore
[3] = Fluorescence analysis of 8-hydroxyquinoline derivatives in the presence of excess Mg2+ under buffered aqueous conditions; settings: 10 μM compound; for λem / λex: 10 mM MgCl2, 150 mM NaCl, 50 mM HEPES (pH 7.4), 25° C.
Experimental: as §1
Azide 8 (FIG. 2) was prepared using previously reported methods. […] In the presence of catalytic Cu(I) and ascorbic acid, 8 reacted readily at room temperature with 1-ethynylcyclohexene (9a) in DMF/4-methylpiperidine (8:2) to afford the cycloaddition product 10a in essentially quantitative yield. […] The fluorescence properties of the triazole-substituted quinolines were investigated for the products from the 1,3-dipolar cycloaddition reaction of 8 with 21 additional alkynes (9b-v) (FIG. 2).
as §2
Fluorescence Experiments. • a. Fluorescence analysis of 8-hydroxyquinoline click products. A 96-well microtier plate was used in the experiments for preliminary examination of fluorescence properties. The overall volume in each well was 200 microliters. Individual reactions contained the crude product from the click chemistry reaction (10 micromolar dissolved in DMSO), MgCl2 (10 mM), NaCl (150 mM) and HEPES (50 mM) at 25° C. (pH 7.4). The fluorescence spectra were recorded with fixed excitation at 370 nm and emission at 525 nm. Based on the preliminary screening, selected products were then synthesized in larger quantities and the quantum yields of the corresponding hydroxyquinoline derivatives were determined.

[4] = Extinction coefficient determination
Experimental: 1. Stock solutions of the peptides were prepared in doubly deionized water and concentrations were determined by UV-Vis (based on the determined extinction coefficient of the fluorophore moiety, either 1 (Sox), ε355=8247 M^−1 cm^−1 or 10u (Clk), ε360=7905 M^−1 cm^−1 in 0.1 M NaOH with 1 mM Na2EDTA). An average of the values from three separate solutions, each prepared using a different volume of the stock solution, was read on UV-Vis spectrophotometer. Purified peptide stock solutions could be stored at 4° C. for at least 6 months or −20° C. for longer periods.
b. Extinction coefficient determination. Extinction coefficients of 1 and 10u were measured in 50 mM HEPES (pH 7.0), 150 mM NaCl. The εmax values were determined by plotting absorbance at 360 nm versus concentration for four chromophore solutions with concentrations between 20 and 60 micromolar and including 1 mM MgCl2.

| Structure (SMILES) | quantum yield compared with 1 (in words) ([1]; 10 μM compound, 10 mM MgCl2, pH 7.4) | stability of the aldehyde group (in words) [2] | excitation and emission wavelengths compared with 1 (in words) ([3]; 10 mM MgCl2, pH 7.4) | quantum yield Φ [1] | λem [3] [nm] | λex [3] [nm] | improvement in quantum yield compared to 10a ([1]; compared to 10a (Φ=0.033)) [fold] | extinction coefficient ε355 ([4]; Example 1, 50 mM HEPES (pH 7.0), 150 mM NaCl, 1 mM MgCl2) | extinction coefficient ε360 ([4]; in 0.1 M NaOH with 1 mM Na2EDTA) [M⁻¹ cm⁻¹] |
| --- | --- | --- | --- | --- | --- | --- | --- | --- | --- |
| Cc1ccc2c(C=O)ccc(O)c2n1 [Compound 2, 5-Carbaldehyde-8-Hydroxy-2-methylquinoline, reference compound] | improved quantum yield | readily oxidized | shorter λem | – | – | – | – | – | – |
| Oc1ccc(-n2cc(C3=CCCCC3)nn2)c2cccnc12 [Compound 10a, 8-Hydroxy-5-(4-cyclohexenyl-1H-1,2,3-triazol-1-yl)quinoline] | – | – | – | 0.033 | 522 | 371 | – | – | – |
| Oc1ccc(-n2cc(-c3ccc(Br)cc3)nn2)c2cccnc12 [Compound 10u, 8-Hydroxy-5-(4-(4-bromophenyl)-1H-1,2,3-triazol-1-yl)quinoline] | – | – | – | 0.111 | 525 | 375 | 3.5 | 7,905 cm^−1M^−1 | 7905 |
